Reference: ChEMBL document CHEMBL5380816, “Inclusion of Nitrofurantoin into the Realm of Cancer Chemotherapy via Biology-Oriented Synthesis and Drug Repurposing” (J Med Chem, 2023)
Active and inactive are the calls of the source. No cut-off for these calls is given here.

What was measured:
Caco-2 [1] = assay: Anticancer activity against human Caco-2 cells assessed as cell shrinkage incubated at 0.098uM for 72 hrs by phase contrast inverted microscopic analysis; type: functional, cell-based
MCF7 [2] = assay: Anticancer activity against human MCF7 cells assessed as absence of normal spindle shape incubated at 0.098uM for 72 hrs by phase contrast inverted microscopic analysis; type: functional, cell-based
Caco-2 [3] = assay: Induction of apoptosis in human Caco-2 cells assessed as early apoptotic cells incubated at 0.098 uM for 72 hrs by annexin V-FITC based propidium iodide dual staining assay (reference value: 0.07%); type: functional
HeLa [4] = assay: Induction of apoptosis in human HeLa cells assessed as viable cells incubated at 0.098 uM for 72 hrs by annexin V-FITC based propidium iodide dual staining assay (reference value: 97.23%); type: functional; conditions: read-out: Activity
Caco-2 [5] = assay: Induction of apoptosis in human Caco-2 cells assessed as total apoptotic cells incubated at 0.098 uM for 72 hrs by annexin V-FITC based propidium iodide dual staining assay (reference value: 0.04 +/- 0.005%); type: functional
Caco-2 [6] = assay: Induction of oxidative stress in human Caco-2 cells assessed as cell death by measuring redox alteration fluorescence incubated at 0.027 uM for 72 hrs in presence of dihydro dichlorofluorescein diacetate by DCFH-DA based flow cytometric analysis relative to control; type: functional
HeLa [7] = assay: Induction of apoptosis in human HeLa cells assessed as caspase3/7 activation at 0.098 uM using caspase-glo 3/7 as substrate relative to control; type: functional
Caco-2 [8] = assay: Anticancer activity against human Caco-2 cells assessed as absence of normal spindle shape incubated at 0.097uM for 72 hrs by phase contrast inverted microscopic analysis; type: functional, cell-based
MCF7 [9] = assay: Anticancer activity against human MCF7 cells assessed as losing contact with neighbouring cells incubated at 0.097uM for 72 hrs by phase contrast inverted microscopic analysis; type: functional, cell-based
HeLa [10] = assay: Anticancer activity against human HeLa cells assessed as smaller cells incubated at 0.097uM for 72 hrs by phase contrast inverted microscopic analysis; type: functional, cell-based
HeLa [11] = assay: Anticancer activity against human HeLa cells assessed as round cells incubated at 0.097uM for 72 hrs by phase contrast inverted microscopic analysis; type: functional, cell-based
HeLa [12] = assay: Anticancer activity against human HeLa cells assessed as losing contact with neighbouring cells incubated at 0.097uM for 72 hrs by phase contrast inverted microscopic analysis; type: functional, cell-based
HepG2 [13] = assay: Anticancer activity against human HepG2 cells assessed as absence of normal spindle shape incubated at 0.097uM for 72 hrs by phase contrast inverted microscopic analysis; type: functional, cell-based
Caco-2 [14] = assay: Induction of apoptosis in human Caco-2 cells assessed as necrotic cells incubated at 0.097 uM for 72 hrs by annexin V-FITC based propidium iodide dual staining assay (reference value: 0.02%); type: functional
HeLa [15] = assay: Induction of apoptosis in human HeLa cells assessed as early apoptotic cells incubated at 0.097 uM for 72 hrs by annexin V-FITC based propidium iodide dual staining assay (reference value: 2.77%); type: functional
HepG2 [16] = assay: Induction of apoptosis in human HepG2 cells assessed as necrotic cells incubated at 0.097 uM for 72 hrs by annexin V-FITC based propidium iodide dual staining assay (reference value: 0.33%); type: functional
HeLa [17] = assay: Induction of apoptosis in human HeLa cells assessed as total apoptotic cells incubated at 0.097 uM for 72 hrs by annexin V-FITC based propidium iodide dual staining assay (reference value: 0 +/- 0.035%); type: functional
Caco-2 [18] = assay: Induction of apoptosis in human Caco-2 cells assessed as early apoptotic cells by measuring bright green patch incubated at 0.097 uM for 72 hrs by acridine orange-ethidium bromide dual staining based fluorescence microscopic analysis; type: functional, cell-based
HepG2 [19] = assay: Induction of apoptosis in human HepG2 cells assessed as early apoptotic cells by measuring bright green patch incubated at 0.097 uM for 72 hrs by acridine orange-ethidium bromide dual staining based fluorescence microscopic analysis; type: functional, cell-based
HepG2 [20] = assay: Induction of apoptosis in human HepG2 cells assessed as late apoptotic cells by measuring orange to red patch incubated at 0.097 uM for 72 hrs by acridine orange-ethidium bromide dual staining based fluorescence microscopic analysis; type: functional, cell-based
HeLa [21] = assay: Induction of oxidative stress in human HeLa cells assessed as cell death by measuring redox alteration fluorescence incubated at 0.097 uM for 72 hrs in presence of dihydro dichlorofluorescein diacetate by DCFH-DA based flow cytometric analysis relative to control; type: functional
HepG2 [22] = assay: Induction of oxidative stress in human HepG2 cells assessed as cell death by measuring redox alteration fluorescence incubated at 0.098 uM for 72 hrs in presence of dihydro dichlorofluorescein diacetate by DCFH-DA based flow cytometric analysis relative to control; type: functional
Caco-2 [23] = assay: Induction of oxidative stress in human Caco-2 cells assessed as cell death by measuring redox alteration fluorescence incubated at 0.017 uM for 72 hrs in presence of dihydro dichlorofluorescein diacetate by DCFH-DA based flow cytometric analysis relative to control; type: functional
Caco-2 [24] = assay: Induction of apoptosis in human Caco-2 cells assessed as early apoptotic cells incubated at 0.11 uM for 72 hrs by annexin V-FITC based propidium iodide dual staining assay (reference value: 0.07%); type: functional
MCF7 [25] = assay: Induction of apoptosis in human MCF7 cells assessed as early apoptotic cells incubated at 0.11 uM for 72 hrs by annexin V-FITC based propidium iodide dual staining assay (reference value: 0.06%); type: functional
MCF7 [26] = assay: Induction of apoptosis in human MCF7 cells assessed as late apoptotic cells incubated at 0.11 uM for 72 hrs by annexin V-FITC based propidium iodide dual staining assay (reference value: 0.01%); type: functional
MCF7 [27] = assay: Induction of apoptosis in human MCF7 cells assessed as early apoptotic cells by measuring bright green patch incubated at 0.11 uM for 72 hrs by acridine orange-ethidium bromide dual staining based fluorescence microscopic analysis; type: functional, cell-based
HeLa [28] = assay: Induction of apoptosis in human HeLa cells assessed as early apoptotic cells by measuring bright green patch incubated at 0.11 uM for 72 hrs by acridine orange-ethidium bromide dual staining based fluorescence microscopic analysis; type: functional, cell-based
dsDNA = assay: Induction of damage in dsDNA (unknown origin) assessed as disrupted by DNA by measuring decrease in fluorescence intensity at 100 uM by EvaGreen based fluorescence plate reader analysis; type: nucleic-acid assay; conditions: time <= 160.0 min, TDE = time-dependent effect
Caco-2 [29] = assay: Anticancer activity against human Caco-2 cells incubated for 24 hrs by MTT assay; type: functional, cell-based; conditions: Caco-2, 24 h
MCF7 [30] = assay: Induction of apoptosis in human MCF7 cells assessed as necrotic cells incubated at 0.017 uM for 72 hrs by annexin V-FITC based propidium iodide dual staining assay (reference value: 0.03%); type: functional
HeLa [31] = assay: Induction of apoptosis in human HeLa cells assessed as necrotic cells incubated at 0.017 uM for 72 hrs by annexin V-FITC based propidium iodide dual staining assay (reference value: 0%); type: functional
HeLa [32] = assay: Induction of apoptosis in human HeLa cells assessed as total apoptotic cells incubated at 0.017 uM for 72 hrs by annexin V-FITC based propidium iodide dual staining assay (reference value: 0 +/- 0.035%); type: functional
Caco-2 [33] = assay: Induction of apoptosis in human Caco-2 cells assessed as caspase3/7 activation at 0.017 uM using caspase-glo 3/7 as substrate relative to control; type: functional

Structure (SMILES): O=C(CN1C(=O)CN(/N=C/c2ccc([N+](=O)[O-])o2)C1=O)c1ccc(Cl)cc1
- Activity (Caco-2 [1]): Active
- Activity (MCF7 [2]): Active
- Activity (Caco-2 [3]): 8.53%
- viability at 0.098 µM (HeLa [4]): 29.8%
- Activity (Caco-2 [5]): 30.95%
- Activity (Caco-2 [6]): 54.7%
- Activity (HeLa [7]): 75%

Structure (SMILES): NS(=O)(=O)c1ccc(-n2cc(CN3C(=O)CN(/N=C/c4ccc([N+](=O)[O-])o4)C3=O)nn2)cc1
- Activity (Caco-2 [8]): Active
- Activity (MCF7 [9]): Active
- Activity (HeLa [10]): Active
- Activity (HeLa [11]): Active
- Activity (HeLa [12]): Active
- Activity (HepG2 [13]): Active
- Activity (Caco-2 [14]): 13.8%
- Activity (HeLa [15]): 17.31%
- Activity (HepG2 [16]): 0%
- Activity (HeLa [17]): 39.42%
- Activity (Caco-2 [18]): Active
- Activity (HepG2 [19]): Active
- Activity (HepG2 [20]): Active
- Activity (HeLa [21]): 53.5%
- Activity (HepG2 [22]): 48.51%
- Activity (Caco-2 [23]): 22.21%

Structure (SMILES): C#CCN1C(=O)CN(/N=C/c2ccc([N+](=O)[O-])o2)C1=O
- Activity (Caco-2 [24]): 4.84%
- Activity (MCF7 [25]): 7.55%
- Activity (MCF7 [26]): 34.7%
- Activity (MCF7 [27]): Active
- Activity (HeLa [28]): Active
- Activity (dsDNA): Tde
- IC50 (Caco-2 [29]): 89 µM

Structure (SMILES): O=c1[nH]cc(F)c(=O)[nH]1 [FLUOROURACIL]
- Activity (MCF7 [30]): 0.68%
- Activity (HeLa [31]): 0.89%
- Activity (HeLa [32]): 4.29%
- Activity (Caco-2 [33]): 12%
